Results published in ChEMBL document CHEMBL1139835, “Novel quinolizidinyl derivatives as antiarrhythmic agents” (J Med Chem, 2007).
Activity calls are given as the source filed them. The rule behind the calls is not given here.

Key:
[1] = Negative chronotropic activity assessed as decrease in atrial rate in isolated guinea pig right atrium at 50 uM relative to control; assay type: functional, Cavia porcellus, Cardiac atrium; set-up: scale not given: the % may be the effect or the level left
Heart [2] = test: Ventricular action potential duration in spontaneously beating Langendorff-perfused guinea pig heart at 10 nM; assay type: functional, Cavia porcellus
Heart [3] = test: Heart rate in spontaneously beating Langendorff-perfused guinea pig heart at 10 nM; assay type: functional, Cavia porcellus; set-up: unit not given here
Aorta [4] = test: Inhibition of calcium-induced contraction of potassium ion depolarized guinea pig aortic strips at 100 uM; assay type: functional; conditions: Cavia porcellus
[5] = Activity against alternating current-induced arrhythmia in guinea pig left atrium; assay type: functional, tissue-based; conditions: Cavia porcellus, Cardiac atrium
Heart [6] = test: Atrioventricular conduction time in spontaneously beating Langendorff-perfused guinea pig heart at 10 nM; assay type: functional, Cavia porcellus
Heart [7] = test: Heart rate in spontaneously beating Langendorff-perfused guinea pig heart at 1 uM; assay type: functional, Cavia porcellus; set-up: unit not given here
Heart [8] = test: Intraventricular conduction time in spontaneously beating Langendorff-perfused guinea pig heart at 10 uM; assay type: functional, Cavia porcellus
Heart [9] = test: Intraventricular conduction time in spontaneously beating Langendorff-perfused guinea pig heart at 1 nM; assay type: functional, Cavia porcellus
Heart [10] = test: Intraventricular conduction time in spontaneously beating Langendorff-perfused guinea pig heart at 1 uM; assay type: functional, Cavia porcellus
Heart [11] = test: Intraventricular conduction time in spontaneously beating Langendorff-perfused guinea pig heart at 10 nM; assay type: functional, Cavia porcellus
Heart [12] = test: Ventricular action potential duration in spontaneously beating Langendorff-perfused guinea pig heart at 0.1 uM; assay type: functional, Cavia porcellus
Heart [13] = test: Atrioventricular conduction time in spontaneously beating Langendorff-perfused guinea pig heart at 10 uM; assay type: functional, Cavia porcellus
[14] = Negative inotropic activity assessed as decrease in developed tension in isolated guinea pig left atrium at 10 uM relative to control; assay type: functional, Cavia porcellus, Cardiac atrium; set-up: scale not given: the % may be the effect or the level left
Heart [15] = test: Heart rate in spontaneously beating Langendorff-perfused guinea pig heart at 0.1uM; assay type: functional, Cavia porcellus; set-up: unit: beats/min
Heart [16] = test: Ventricular action potential duration in spontaneously beating Langendorff-perfused guinea pig heart at 1 uM; assay type: functional, Cavia porcellus
Heart [17] = test: Atrioventricular conduction time in spontaneously beating Langendorff-perfused guinea pig heart at 0.1 uM; assay type: functional, Cavia porcellus
[18] = Activity against alternating current-induced arrhythmia in guinea pig left atrium at 50 uM; assay type: functional, Cavia porcellus, Cardiac atrium
Heart [19] = test: Ventricular action potential duration in spontaneously beating Langendorff-perfused guinea pig heart at 10 uM; assay type: functional, Cavia porcellus
Heart [20] = test: Heart rate in spontaneously beating Langendorff-perfused guinea pig heart at 1 nM; assay type: functional, Cavia porcellus; set-up: unit not given here
Heart [21] = test: Intraventricular conduction time in spontaneously beating Langendorff-perfused guinea pig heart at 0.1 uM; assay type: functional, Cavia porcellus
Heart [22] = test: Heart rate in spontaneously beating Langendorff-perfused guinea pig heart at 10 uM; assay type: functional, Cavia porcellus; set-up: unit not given here
Heart [23] = test: Atrioventricular conduction time in spontaneously beating Langendorff-perfused guinea pig heart at 1 uM; assay type: functional, Cavia porcellus
[24] = Negative inotropic activity assessed as decrease in developed tension in isolated guinea pig left atrium; assay type: functional, tissue-based; conditions: Cavia porcellus, Cardiac atrium
Heart [25] = test: Ventricular action potential duration in spontaneously beating Langendorff-perfused guinea pig heart at 1 nM; assay type: functional, Cavia porcellus
Heart [26] = test: Atrioventricular conduction time in spontaneously beating Langendorff-perfused guinea pig heart at 1 nM; assay type: functional, Cavia porcellus
[27] = (§1) Activity against alternating current-induced arrhythmia in guinea pig left atrium at 10 uM; assay type: functional, Cavia porcellus, Cardiac atrium
[28] = Negative inotropic activity assessed as decrease in developed tension in isolated guinea pig left atrium at 0.1 uM relative to control; assay type: functional, Cavia porcellus, Cardiac atrium; set-up: scale not given: the % may be the effect or the level left
[29] = Negative chronotropic activity assessed as decrease in atrial rate in isolated guinea pig right atrium at 10 uM relative to control; assay type: functional, Cavia porcellus, Cardiac atrium; set-up: scale not given: the % may be the effect or the level left
Cavia porcellus [30] = species on record: Cavia porcellus; test: (§2) Activity against alternating current-induced arrhythmia in guinea pig left atrium at 100 uM; assay type: functional; conditions: Cardiac atrium
[31] = Negative inotropic activity assessed as decrease in developed tension in isolated guinea pig left atrium at 50 uM relative to control; assay type: functional, Cavia porcellus, Cardiac atrium; set-up: scale not given: the % may be the effect or the level left
[32] = Negative chronotropic activity assessed as decrease in atrial rate in isolated guinea pig right atrium at 100 uM relative to control; assay type: functional, Cavia porcellus, Cardiac atrium; set-up: scale not given: the % may be the effect or the level left
Cavia porcellus [33] = species on record: Cavia porcellus; test: as §1; assay type: functional; conditions: Cardiac atrium
[34] = Negative inotropic activity assessed as decrease in developed tension in isolated guinea pig left atrium at 100 uM relative to control; assay type: functional, Cavia porcellus, Cardiac atrium; set-up: scale not given: the % may be the effect or the level left
[35] = Positive chronotropic activity in isolated guinea pig right atrium relative to control; assay type: functional, Cavia porcellus, Cardiac atrium
[36] = Displacement of [3H]batrachotoxin from sodium channel in rat brain; assay type: tissue-based
[37] = Negative inotropic activity assessed as decrease in developed tension in isolated guinea pig left atrium at 0.5 uM relative to control; assay type: functional, Cavia porcellus, Cardiac atrium; set-up: scale not given: the % may be the effect or the level left
[38] = Negative inotropic activity assessed as decrease in developed tension in isolated guinea pig left atrium at 1 uM relative to control; assay type: functional, Cavia porcellus, Cardiac atrium; set-up: scale not given: the % may be the effect or the level left
[39] = Positive chronotropic activity in isolated guinea pig right atrium at 5 uM relative to control; assay type: functional, Cavia porcellus, Cardiac atrium
Aorta [40] = test: Inhibition of calcium-induced contraction of potassium ion depolarized guinea pig aortic strips at 50 uM; assay type: functional; conditions: Cavia porcellus
[41] = Negative inotropic activity assessed as decrease in developed tension in isolated guinea pig left atrium at 50 nM relative to control; assay type: functional, Cavia porcellus, Cardiac atrium; set-up: scale not given: the % may be the effect or the level left
[42] = Positive chronotropic activity in isolated guinea pig right atrium at 1 uM relative to control; assay type: functional, Cavia porcellus, Cardiac atrium
[43] = Activity against alternating current-induced arrhythmia in guinea pig left atrium at 1 uM; assay type: functional, Cavia porcellus, Cardiac atrium
[44] = Negative chronotropic activity assessed as decrease in atrial rate in isolated guinea pig right atrium at 5 uM relative to control; assay type: functional, Cavia porcellus, Cardiac atrium; set-up: scale not given: the % may be the effect or the level left
[45] = Activity against alternating current-induced arrhythmia in guinea pig left atrium at 5 uM; assay type: functional, Cavia porcellus, Cardiac atrium
[46] = as §2; assay type: functional, Cavia porcellus, Cardiac atrium
[47] = Negative inotropic activity assessed as decrease in developed tension in isolated guinea pig left atrium at 5 uM relative to control; assay type: functional, Cavia porcellus, Cardiac atrium; set-up: scale not given: the % may be the effect or the level left

CC(=O)Nc1ccc(C(=O)NC[C@@H]2CCCN3CCCC[C@H]23)cc1
Activity [1]: 14%
Activity (Heart [2]): 182 ms
Activity (Heart [3]): 175
inhibition at 100 µM (Aorta [4]): 3%
EC50 [5]: 470 nM
Activity (Heart [6]): 65 ms
Activity (Heart [7]): 166
Activity (Heart [8]): 33 ms
Activity (Heart [9]): 34 ms
Activity (Heart [10]): 34 ms
Activity (Heart [11]): 33 ms
Activity (Heart [12]): 190 ms
Activity (Heart [13]): 75 ms
Activity [14]: 86%
Activity (Heart [15]): 170
Activity (Heart [16]): 195 ms
Activity (Heart [17]): 70 ms
Activity [18]: 92%
Activity (Heart [19]): 204 ms
Activity (Heart [20]): 180
Activity (Heart [21]): 32 ms
Activity (Heart [22]): 165
Activity (Heart [23]): 72 ms
EC50 [24]: 59 nM
Activity (Heart [25]): 170 ms
Activity (Heart [26]): 62 ms

Cc1cccc(C)c1OC[C@H]1CCCN2CCCC[C@H]12
Activity [27]: 35%
inhibition at 100 µM (Aorta [4]): 21%
Activity [28]: 68%
Activity [29]: 13%
EC50 [24]: 14 nM

Cc1cc([N+](=O)[O-])cc(C)c1NC(=O)C[C@@H]1CCCN2CCCC[C@H]12
Activity (Cavia porcellus [30]): inactive
Activity [31]: 79%
inhibition at 100 µM (Aorta [4]): 4%
Activity [32]: 25%
EC50 [24]: 3460 nM

Cc1cc(NS(C)(=O)=O)cc(C)c1NC(=O)C[C@@H]1CCCN2CCCC[C@H]12
Activity (Cavia porcellus [33]): inactive
Activity [34]: 86%
inhibition at 100 µM (Aorta [4]): 24%
Activity [35]: 8%
EC50 [24]: 310 nM

Cc1cc(C(=O)c2ccccc2)ccc1NC(=O)C[C@@H]1CCCN2CCCC[C@H]12
IC50 [36]: 3700 nM

CCN(CC)CCNC(=O)c1ccc(N)cc1 [PROCAINAMIDE]
inhibition at 100 µM (Aorta [4]): 3%
Activity [35]: 9%
Activity [37]: 92%
Activity [18]: 11%
EC50 [24]: 14 nM

Nc1ccc(C(=O)NC[C@@H]2CCCN3CCCC[C@H]23)cc1
Activity [27]: 28%
Activity [34]: 95%
inhibition at 100 µM (Aorta [4]): 3%
Activity [35]: 13%
EC50 [24]: 460 nM

CCN(CC)CC(=O)Nc1c(C)cccc1C [LIDOCAINE]
Activity [38]: 88%
inhibition at 100 µM (Aorta [4]): 14%
Activity [39]: 29%
Activity [18]: 34%
EC50 [24]: 17 nM

Cc1cccc(C)c1OC[C@@H]1CCCN2CCCC[C@H]12
Activity [27]: 176%
Activity (Heart [2]): 160 ms
Activity (Heart [3]): 215
Activity [29]: 19%
inhibition at 50 µM (Aorta [40]): 26%
EC50 [5]: 460 nM
Activity (Heart [6]): 64 ms
Activity (Heart [7]): 206
Activity (Heart [8]): 31 ms
Activity (Heart [9]): 30 ms
Activity (Heart [10]): 30 ms
Activity (Heart [11]): 30 ms
Activity (Heart [12]): 170 ms
Activity (Heart [13]): 70 ms
Activity (Heart [15]): 210
Activity (Heart [16]): 200 ms
Activity (Heart [17]): 66 ms
Activity (Heart [19]): 210 ms
Activity (Heart [20]): 218
Activity [41]: 25%
Activity (Heart [21]): 28 ms
Activity (Heart [22]): 203
Activity (Heart [23]): 68 ms
Activity (Heart [25]): 155 ms
Activity (Heart [26]): 60 ms

Cc1cccc(C)c1NC(=O)C[C@@H]1CCCN2CCCC[C@H]12
Activity [31]: 95%
inhibition at 100 µM (Aorta [4]): 5%
EC50 [5]: 5710 nM
Activity [18]: 78%
Activity [42]: 8%
EC50 [24]: 620 nM

Cc1cc([N+](=O)[O-])cc(C)c1OC[C@H]1CCCN2CCCC[C@H]12
Activity [43]: 23%
inhibition at 50 µM (Aorta [40]): 19%
Activity [14]: 83%
Activity [44]: 25%
EC50 [24]: 600 nM

Cc1cc(NS(C)(=O)=O)cc(C)c1OC[C@@H]1CCCN2CCCC[C@H]12
Activity [38]: 83%
inhibition at 100 µM (Aorta [4]): 30%
EC50 [5]: 1250 nM
Activity [32]: 12%
Activity [45]: 60%
EC50 [24]: 31 nM

Cc1cc(N)cc(C)c1OC[C@@H]1CCCN2CCCC[C@H]12
Activity [46]: 166%
Activity (Heart [2]): 170 ms
Activity (Heart [3]): 190
inhibition at 100 µM (Aorta [4]): 15%
EC50 [5]: 970 nM
Activity (Heart [6]): 60 ms
Activity (Heart [7]): 180
Activity (Heart [8]): 32 ms
Activity (Heart [9]): 30 ms
Activity (Heart [10]): 32 ms
Activity (Heart [11]): 33 ms
Activity [47]: 83%
Activity (Heart [12]): 182 ms
Activity (Heart [13]): 70 ms
Activity (Heart [15]): 184
Activity [32]: 38%
Activity (Heart [16]): 194 ms
Activity (Heart [17]): 64 ms
Activity (Heart [19]): 205 ms
Activity (Heart [20]): 192
Activity (Heart [21]): 31 ms
Activity (Heart [22]): 175
Activity (Heart [23]): 66 ms
EC50 [24]: 290 nM
Activity (Heart [25]): 160 ms
Activity (Heart [26]): 58 ms
